Data: patent US6368529B1, “Lignocellulosic composite” (U.S. Borax Inc., priority 2000, dated 2002)

What was measured:
[1] = test system: Gloeophyllum trabeum (ATCC 11539); assay: Soil block decay test (AWPA E10-87), brown rot; format: cell-based; conditions: for Comparison with zinc borate against G. trabeum: after leaching
Description: (§1) Wood flakeboard was manufactured by conventional wood processing techniques, incorporating various borates at a range of concentrations, from 0.5 to 2.0% boric acid equivalent (BAE). Boric acid (H3BO3) equivalent is a commonly used convention for comparing various borates on an equivalent contained-boron basis. For each borate/loading combination, fifteen pounds of aspen (Populus tremuloides) furnish having an average particle size of about 2.5×0.75×0.025 inches, was blended with 0.75 pounds (5%) Rubinate 1840 (product of ICI), a polymeric methylene diphenyl diisocyanate adhesive, 0.11 pounds (0.75%) of Cascowax EW 403HS (product of Borden) and various concentrations of nine test borates. For each borate/loading combination, three 18″×18″ composite boards of 0.5 inch thickness were formed by pressing for 210 seconds at (180 seconds pressure, 30 seconds pressure release) at 204.5° C. (the pressure was kept in excess of 6000 psi during the pressure cycle). Each board was trimmed to 15″×15″ and cut to produce internal bond and analytical/soil block specimens for evaluation. Replicates were cut from the inner portion of the boards. Four internal bond, two leaching panels and twenty analytical/soil block specimens were cut from each board.
(§2) The panels to be leached (4.5″×4.5″) were edge sealed with an epoxy sealant and leached for two weeks. Leaching began with pressure treatment of the specimens with water for 30 minutes under vacuum and one hour under pressure. The specimens were removed from the pressure treatment chamber and the residual water was changed after two hours, then daily for the remainder of the leaching period. Afterward, they were trimmed to remove the sealed edges and cut into analytical/soil block test samples. Unleached and leached analytical/soil block samples for each board type were separately randomized. Fifteen were analyzed for borate content and ten were retained for the soil block decay test.
(§3) The soil block test was conducted in accordance with AWPA E10-87, with the exception that soil block dimensions were 1.0″×1.0″×0.5″. The fungi used were Gloeophyllum trabeum (ATCC 11539) for brown rot test and Trametes versicolor (MAD 697) for white rot test. An untreated composite control was run both unleached and leached. Solid southern yellow pine and birch were also run as unleashed controls against G. trabeum and T. versicolor, respectively as a test of fungal vigor.

[2] = test system: Trametes versicolor (MAD 697); assay: Soil block decay test (AWPA E10-87), white rot; format: cell-based; conditions: for Comparison with zinc borate against T. versicolor: after leaching
Description: as §1, §2, §3

[3] = Borate content of composite after two weeks water leaching; format: physicochemical; conditions: leached two weeks
Protocol: as §2

[4] = Bulk solids flow testing, J. R. Johanson Indicizer System; format: physicochemical; conditions: for Hopper Index Stainless Steel / Chute Index Stainless Steel: 304-2B Stainless Steel; for Hopper Index Stainless Steel / Hopper Index Plastic / Hopper Index Carbon Steel: maximum angle from the vertical, larger is better; for Chute Index Stainless Steel / Chute Index Plastic / Chute Index Carbon Steel: minimum angle from horizontal, smaller is better; for Hopper Index Plastic / Chute Index Plastic: Tivar UHMWPE plastic; for Hopper Index Carbon Steel / Chute Index Carbon Steel: aged carbon steel; for Arching Index / Ratholing Index: multiple of the discharge opening, less than 1 necessary for free flow, average of 3-6 tests
Description: Bulk solids flow testing was done using the J. R. Johanson Indicizer System, including a Hang-up Indicizer and Hopper Indicizer, manufactured by J R Johanson, Inc. 712 Fiero Lane #37, San Luis Obispo, Calif. 93401. The test procedures are described in detail in their company literature (BULK SOLIDS INDICES TESTING, Hang-up Indicizer™ Instruction Manual ©JR Johanson, Inc. 1991 and BULK SOLIDS INDICES TESTING, Hopper Indicizer™ Instruction Manual ©JR Johanson, Inc. 1991). The results are presented in the following Table 3 as the Arching Index, Ratholing Index, Hopper Index and Chute Index, which are the average of several tests (3-6). The meaning and usefulness of these flow indices in evaluating the flow properties of bulk solids are also described in literature from JR Johanson, Inc., including Binside Scoop™, Vol. 7, No. 2, Fall 1994, Binside Scoop™, Vol. 8, No. 3, Winter 1995, and “Bulk solids Flow Indices—A Simplified Evaluation system”, by Jerry R. Johanson, ©JR Johanson, 1991.
Arching Index—A tendency of a cohesive material is to plug up the opening of a bin by forming an “arch” over the discharge opening. The arching index is given as a multiple of the discharge opening, so less than 1 is necessary for free flow. Numbers greater than 1 reflect a need to enlarge the opening.
Ratholing Index—A tendency of a cohesive material is to hang up on the sides of a bin while an open hole forms in the center and flow ceases. Rathole indices are also given as a multiple of the discharge opening and a number of less than 1 is necessary for free flow. Numbers greater than 1 mean the bins should be redesigned.
Hopper Index—The maximum angle, measured in degrees from the vertical, that is required for the conical portion of a hopper in order to produce reliable mass flow. A larger number is better.
Chute Index—The minimum angle, measured in degrees from horizontal, required for flow down a chute and to prevent material buildup at impact areas. A smaller number is better. Chute indices may often be close to the angle of repose.
Both hopper and chute indices measurements involve friction over a specified surface and measurements are made using substrates of the material of construction. The substrates used for these tests are 304-2B Stainless Steel, aged carbon steel and Tivar UHMWPE (ultra high molecular weight polyethylene) plastic.

[5] = leached two weeks, target loading 0.5% BAE (0.09% B)
[6] = leached two weeks, target loading 1.0% BAE (0.17% B)
[7] = leached two weeks, target loading 2.0% BAE (0.35% B)
[8] = unleached aspen flakeboard, target loading 0.5% BAE (0.09% B)
[9] = unleached aspen flakeboard, target loading 1.0% BAE (0.17% B)
[10] = unleached aspen flakeboard, target loading 2.0% BAE (0.35% B)
[11] = target loading 0.5% BAE (0.09% B)
[12] = target loading 1.0% BAE (0.17% B)
[13] = target loading 2.0% BAE (0.35% B)

Compound	Mean % Wt. Loss G. trabeum [1, 5]	Mean % Wt. Loss G. trabeum [1, 6]	Mean % Wt. Loss G. trabeum [1, 7]	Mean % Wt. Loss G. trabeum [1, 8]	Mean % Wt. Loss G. trabeum [1, 9]	Mean % Wt. Loss G. trabeum [1, 10]	Mean % Wt. Loss T. versicolor [2, 5]	Mean % Wt. Loss T. versicolor [2, 6]	Mean % Wt. Loss T. versicolor [2, 7]	Mean % Wt. Loss T. versicolor [2, 8]	Mean % Wt. Loss T. versicolor [2, 9]	Mean % Wt. Loss T. versicolor [2, 10]	Assay % B [3, 11]	Assay % B [3, 12]	Assay % B [3, 13]	Chute Index Plastic [4]	other results
Gowerite	7.4%	5.8%	3.1%	0.9%	0.9%	1.3%	24.7%	14.7%	11.8%	5.5%	3.1%	2.6%	0.04 % B	0.07 % B	0.09 % B	–	–
Colemanite [Colemanite (1)]	5.5%	1.5%	1.0%	0.6%	1.0%	1.5%	27.5%	8.4%	2.5%	3.9%	3.7%	2.4%	0.03 % B	0.07 % B	0.19 % B	90 degrees	Hopper Index Stainless Steel ([4]; Glass Grade): 14 degrees; Chute Index Stainless Steel ([4]; Glass Grade): 76 degrees; Hopper Index Plastic ([4]; Glass Grade): 8 degrees; Hopper Index Carbon Steel ([4]; Glass Grade): 3 degrees; Chute Index Carbon Steel ([4]; Glass Grade): 82 degrees; Arching Index ([4]; Glass Grade): 0.7; Ratholing Index ([4]; Glass Grade): 4.7; Comparison with zinc borate against G. trabeum [1]: roughly comparable to zinc borate; Comparison with zinc borate against T. versicolor [2]: roughly comparable to zinc borate
Zinc Borate [reference compound]	2.3%	0.9%	0.8%	0.9%	0.8%	1.0%	22.9%	7.0%	2.0%	8.3%	2.9%	1.6%	0.05 % B	0.10 % B	0.23 % B	58 degrees	Hopper Index Stainless Steel [4]: 13 degrees; Chute Index Stainless Steel [4]: 38 degrees; Hopper Index Plastic [4]: 13 degrees; Hopper Index Carbon Steel [4]: 12 degrees; Chute Index Carbon Steel [4]: 44 degrees; Arching Index [4]: 0.5; Ratholing Index [4]: 2.9
Ulexite	6.6%	1.0%	1.3%	1.4%	0.8%	1.8%	22.3%	11.0%	7.2%	13.9%	3.4%	3.0%	0.03 % B	0.08 % B	0.11 % B	–	–
O=BOB=O [Boric Oxide (60m), Boric Oxide, reference compound]	8.0%	6.0%	3.3%	1.6%	0.7%	1.1%	50.4%	35.8%	23.2%	7.6%	3.6%	3.7%	0.02 % B	0.03 % B	0.07 % B	–	–
Colemanite [Colemanite (2)]	3.4%	1.6%	1.3%	0.8%	0.6%	1.1%	19.9%	5.1%	2.2%	5.1%	2.3%	2.2%	0.04 % B	0.08 % B	0.18 % B	90 degrees	Hopper Index Stainless Steel ([4]; listed as Colemanite F): 1.3 degrees; Chute Index Stainless Steel ([4]; listed as Colemanite F): 90 degrees; Hopper Index Plastic ([4]; listed as Colemanite F): 4.2 degrees; Hopper Index Carbon Steel ([4]; listed as Colemanite F): 2.7 degrees; Chute Index Carbon Steel ([4]; listed as Colemanite F): 90 degrees; Arching Index ([4]; listed as Colemanite F): 0.4; Ratholing Index ([4]; listed as Colemanite F): 3.9; Comparison with zinc borate against G. trabeum [1]: roughly comparable to zinc borate; Comparison with zinc borate against T. versicolor [2]: roughly comparable to zinc borate
O=BOB=O [Boric Oxide (4m), Boric Oxide, reference compound]	15.5%	7.4%	3.0%	2.6%	1.4%	1.7%	34.3%	29.5%	9.5%	7.5%	9.0%	2.9%	0.02 % B	0.04 % B	0.09 % B	–	–
Hydroboracite	9.4%	4.2%	1.8%	1.1%	1.0%	2.2%	27.1%	21.0%	4.5%	2.8%	3.6%	2.2%	0.05 % B	0.06 % B	0.13 % B	–	–
